The record followed here is PMC10682951, “Structure-function and rational design of a spider toxin Ssp1a at human voltage-gated sodium channel subtypes” (Frontiers in Pharmacology, 2023).

One may read the pIC50 as the IC50 on a negative log10 scale, so that one unit is a factor of ten.

Type in all cases: cell-based
For one test, the target named is T1, hNaV1.3 (Homo sapiens, UniProt Q9NY46).
T1 construct: host or cells: HEK293
Nature of the test: Automated whole-cell patch-clamp (QPatch 16X), hNaV1.3. The settings on record: HEK293 cells expressing hNaV1.3 + β1 subunit; QPatch 16X; holding −80 mV, step to 0 mV; peptide incubated 2 min; 0.1% BSA; mean, SEM and n (3-12). Put shortly: (§1)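 HEK293 cells stably expressing the channel (human subtypes with β1 subunit), held at −80 mV; 2 min peptide pre-incubation, then 20 ms steps to 0 mV after a 200 ms −120 mV conditioning pulse. Extracellular pH 7.3 with 20 mM TEA-Cl, CsF-based pipette solution, 0.1% BSA; IC50 from four-parameter Hill fit.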

The target of a further test is T2, hNaV1.7 (Homo sapiens, UniProt Q15858).
T2 construct: host or cells: HEK293
In words: Automated whole-cell patch-clamp (QPatch 16X), hNaV1.7. Particulars: for pIC50: HEK293 cells expressing hNaV1.7 + β1 subunit, QPatch 16X, holding −80 mV, step to 0 mV, peptide incubated 2 min, 0.1% BSA, mean, SEM and n (3-9). In a few lines:
as §1
(The patch-clamp technique gives a direct electrical read-out from membranes.)

The target in the next test is T3, hNaV1.2 (Homo sapiens, UniProt Q99250).
T3 construct: host or cells: HEK293
In words: Automated whole-cell patch-clamp (QPatch 16X), hNaV1.2. Particulars: for pIC50: HEK293 cells expressing hNaV1.2 + β1 subunit, QPatch 16X, holding −80 mV, step to 0 mV, peptide incubated 2 min, 0.1% BSA, mean, SEM and n (2-7); for hNaV1.2-selectivity against hNaV1.3: ratio of potencies hNaV1.3 / hNaV1.2. In a few lines: as §1

SMILES strings stand for the structures. pIC50: −log10 of the molar value. Bridge positions count the residues as written; N and C are the ends. Peptide text beside a SMILES is read from it.

T1 sequence (Q9NY46 whole entry): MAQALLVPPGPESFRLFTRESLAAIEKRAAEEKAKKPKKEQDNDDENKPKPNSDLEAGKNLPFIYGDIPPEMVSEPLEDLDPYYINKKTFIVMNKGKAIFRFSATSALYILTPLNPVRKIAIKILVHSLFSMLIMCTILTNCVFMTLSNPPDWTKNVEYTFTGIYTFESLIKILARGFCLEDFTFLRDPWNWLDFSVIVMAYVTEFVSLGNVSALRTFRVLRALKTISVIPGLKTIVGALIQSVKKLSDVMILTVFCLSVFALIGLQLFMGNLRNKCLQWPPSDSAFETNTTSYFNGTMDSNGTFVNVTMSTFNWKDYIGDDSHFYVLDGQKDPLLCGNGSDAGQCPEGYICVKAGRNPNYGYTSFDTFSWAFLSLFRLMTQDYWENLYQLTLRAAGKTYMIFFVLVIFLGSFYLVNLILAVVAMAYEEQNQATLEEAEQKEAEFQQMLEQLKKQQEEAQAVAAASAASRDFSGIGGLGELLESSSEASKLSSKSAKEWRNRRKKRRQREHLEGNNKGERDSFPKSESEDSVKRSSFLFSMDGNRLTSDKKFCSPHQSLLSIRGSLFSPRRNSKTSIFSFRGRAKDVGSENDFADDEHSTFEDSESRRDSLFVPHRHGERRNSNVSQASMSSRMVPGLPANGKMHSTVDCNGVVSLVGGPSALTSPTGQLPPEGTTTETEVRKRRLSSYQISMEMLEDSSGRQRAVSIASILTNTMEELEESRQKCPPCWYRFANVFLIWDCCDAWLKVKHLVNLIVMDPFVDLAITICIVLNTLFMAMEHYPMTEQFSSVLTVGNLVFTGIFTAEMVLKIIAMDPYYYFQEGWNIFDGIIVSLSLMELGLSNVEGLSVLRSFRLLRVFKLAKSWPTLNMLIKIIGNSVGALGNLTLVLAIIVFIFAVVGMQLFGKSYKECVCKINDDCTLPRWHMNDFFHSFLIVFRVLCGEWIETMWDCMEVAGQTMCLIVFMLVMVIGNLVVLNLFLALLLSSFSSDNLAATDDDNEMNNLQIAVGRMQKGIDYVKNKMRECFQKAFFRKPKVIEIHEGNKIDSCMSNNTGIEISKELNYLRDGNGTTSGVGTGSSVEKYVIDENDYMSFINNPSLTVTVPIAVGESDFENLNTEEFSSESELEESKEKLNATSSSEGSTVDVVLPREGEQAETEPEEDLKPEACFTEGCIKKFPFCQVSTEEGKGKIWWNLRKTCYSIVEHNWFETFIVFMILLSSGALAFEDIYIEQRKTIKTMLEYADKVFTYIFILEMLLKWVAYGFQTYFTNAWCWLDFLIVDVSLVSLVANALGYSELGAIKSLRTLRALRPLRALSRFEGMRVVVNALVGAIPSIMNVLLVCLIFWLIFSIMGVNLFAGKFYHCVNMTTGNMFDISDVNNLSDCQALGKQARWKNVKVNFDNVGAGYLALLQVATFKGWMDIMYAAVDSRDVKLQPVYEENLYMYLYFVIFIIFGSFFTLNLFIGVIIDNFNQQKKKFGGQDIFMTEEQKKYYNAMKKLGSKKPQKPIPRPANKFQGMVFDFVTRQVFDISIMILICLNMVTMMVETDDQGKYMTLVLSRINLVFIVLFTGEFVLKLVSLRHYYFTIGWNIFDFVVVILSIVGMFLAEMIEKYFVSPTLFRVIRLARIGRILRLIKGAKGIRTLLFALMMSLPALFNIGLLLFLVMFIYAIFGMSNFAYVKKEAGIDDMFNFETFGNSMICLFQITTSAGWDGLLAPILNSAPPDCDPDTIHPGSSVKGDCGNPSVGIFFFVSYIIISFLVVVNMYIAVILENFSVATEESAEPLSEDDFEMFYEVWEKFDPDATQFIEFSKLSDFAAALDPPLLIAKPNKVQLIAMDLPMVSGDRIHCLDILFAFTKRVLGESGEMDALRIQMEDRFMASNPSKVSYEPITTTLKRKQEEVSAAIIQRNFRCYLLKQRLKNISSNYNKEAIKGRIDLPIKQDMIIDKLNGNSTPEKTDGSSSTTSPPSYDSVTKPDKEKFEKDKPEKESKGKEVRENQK
T1 sequence (Q07699 19-218, further chain): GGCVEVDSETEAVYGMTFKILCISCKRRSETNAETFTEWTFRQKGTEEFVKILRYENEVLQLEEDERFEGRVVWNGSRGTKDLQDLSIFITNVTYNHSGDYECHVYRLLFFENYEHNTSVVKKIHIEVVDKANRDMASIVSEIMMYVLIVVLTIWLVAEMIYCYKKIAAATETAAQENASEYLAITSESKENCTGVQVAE
T2 sequence (Q15858 whole entry): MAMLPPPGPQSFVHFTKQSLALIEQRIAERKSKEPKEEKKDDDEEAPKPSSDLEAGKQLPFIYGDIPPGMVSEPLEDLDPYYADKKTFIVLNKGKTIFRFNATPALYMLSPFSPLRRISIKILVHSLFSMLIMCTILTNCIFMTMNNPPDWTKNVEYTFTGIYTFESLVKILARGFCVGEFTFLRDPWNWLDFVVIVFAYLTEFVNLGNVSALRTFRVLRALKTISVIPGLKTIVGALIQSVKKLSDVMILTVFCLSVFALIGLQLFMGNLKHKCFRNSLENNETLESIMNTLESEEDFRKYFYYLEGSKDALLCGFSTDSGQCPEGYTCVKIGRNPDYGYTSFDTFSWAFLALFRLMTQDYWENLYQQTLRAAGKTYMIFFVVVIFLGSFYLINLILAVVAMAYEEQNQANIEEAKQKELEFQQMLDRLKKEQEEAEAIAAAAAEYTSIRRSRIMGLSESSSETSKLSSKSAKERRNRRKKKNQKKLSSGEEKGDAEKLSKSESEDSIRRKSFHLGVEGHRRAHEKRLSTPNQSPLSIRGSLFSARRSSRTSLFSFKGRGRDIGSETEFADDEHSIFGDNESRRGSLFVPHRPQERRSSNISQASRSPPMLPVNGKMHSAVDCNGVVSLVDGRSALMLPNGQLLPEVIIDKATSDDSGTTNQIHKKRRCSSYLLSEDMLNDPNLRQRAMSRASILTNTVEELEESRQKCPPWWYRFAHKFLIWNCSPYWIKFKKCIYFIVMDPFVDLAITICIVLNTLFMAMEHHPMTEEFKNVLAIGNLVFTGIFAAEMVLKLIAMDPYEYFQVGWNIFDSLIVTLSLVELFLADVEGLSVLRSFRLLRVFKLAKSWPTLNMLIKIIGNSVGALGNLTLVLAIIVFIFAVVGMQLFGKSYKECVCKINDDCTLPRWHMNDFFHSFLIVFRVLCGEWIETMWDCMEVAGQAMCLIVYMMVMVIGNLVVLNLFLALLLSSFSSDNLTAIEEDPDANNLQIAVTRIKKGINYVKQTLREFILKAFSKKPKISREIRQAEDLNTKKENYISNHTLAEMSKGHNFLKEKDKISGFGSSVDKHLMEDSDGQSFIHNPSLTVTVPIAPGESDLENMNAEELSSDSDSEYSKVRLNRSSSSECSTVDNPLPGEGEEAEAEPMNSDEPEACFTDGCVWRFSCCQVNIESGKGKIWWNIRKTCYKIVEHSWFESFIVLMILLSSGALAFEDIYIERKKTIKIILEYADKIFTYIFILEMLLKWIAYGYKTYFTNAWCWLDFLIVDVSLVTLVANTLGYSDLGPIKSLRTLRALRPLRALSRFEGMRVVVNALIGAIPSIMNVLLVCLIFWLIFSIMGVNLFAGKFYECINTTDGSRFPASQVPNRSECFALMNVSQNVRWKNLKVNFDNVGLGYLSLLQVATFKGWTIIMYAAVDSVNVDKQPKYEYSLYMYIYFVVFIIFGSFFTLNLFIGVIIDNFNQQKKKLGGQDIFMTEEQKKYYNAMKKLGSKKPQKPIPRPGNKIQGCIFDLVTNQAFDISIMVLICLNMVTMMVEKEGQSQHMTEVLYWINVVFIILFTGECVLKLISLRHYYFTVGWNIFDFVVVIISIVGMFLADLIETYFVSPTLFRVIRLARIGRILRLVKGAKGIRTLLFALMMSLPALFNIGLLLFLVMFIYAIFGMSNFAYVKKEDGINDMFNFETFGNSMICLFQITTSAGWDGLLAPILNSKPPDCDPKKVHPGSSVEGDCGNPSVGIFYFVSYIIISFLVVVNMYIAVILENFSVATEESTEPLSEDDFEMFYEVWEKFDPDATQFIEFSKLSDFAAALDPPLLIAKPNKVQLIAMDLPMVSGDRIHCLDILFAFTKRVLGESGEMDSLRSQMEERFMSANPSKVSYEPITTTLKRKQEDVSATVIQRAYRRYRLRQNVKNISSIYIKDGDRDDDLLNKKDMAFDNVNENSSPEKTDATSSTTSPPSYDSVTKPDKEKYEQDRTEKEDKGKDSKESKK
T2 sequence (Q07699 19-218, further chain): as the sequence (Q07699 19-218, further chain) above

`CC(C)C[C@H](NC(=O)[C@H](CC(=O)O)NC(=O)[C@H](Cc1ccc(O)cc1)NC(=O)[C@H](CCCNC(=N)N)NC(=O)[C@@H]1CSSC[C@@H]2NC(=O)[C@H](CCCCN)NC(=O)[C@H](CC(N)=O)NC(=O)[C@H](CC(N)=O)NC(=O)[C@H](CC(N)=O)NC(=O)[C@@H]3CCCN3C(=O)[C@H](CC(=O)O)NC(=O)[C@@H]3CSSC[C@H](NC(=O)[C@H](C(C)C)NC(=O)[C@H](Cc4ccc(O)cc4)NC(=O)CNC(=O)[C@H](CCC(=O)O)NC(=O)[C@H](CSSC[C@H](NC(=O)[C@H](CC(=O)O)NC(=O)CN)C(=O)N[C@@H](CC(C)C)C(=O)NCC(=O)N[C@@H](Cc4c[nH]c5ccccc45)C(=O)N[C@@H](Cc4ccccc4)C(=O)N[C@@H](CO)C(=O)NCC(=O)N3)NC2=O)C(=O)N2CCC[C@H]2C(=O)N[C@@H](Cc2c[nH]c3ccccc23)C(=O)N[C@@H](CCCCN)C(=O)N[C@@H](Cc2ccc(O)cc2)C(=O)N2CCC[C@H]2C(=O)N[C@@H](Cc2c[nH]c3ccccc23)C(=O)N1)C(=O)O` [H23P] (H-GDCLGWFSGCDPNNNKCCEGYVCPWKYPWCRYDL-OH; disulfide 3-18, 10-23, 17-30 (inferred); N-terminus and C-terminus assumed): the pIC50 at hNaV1.3, on hNaV1.7 and at hNaV1.2 was below 5.52 throughout.
For `CC(C)C[C@H](NC(=O)[C@H](CC(=O)O)NC(=O)[C@H](Cc1ccc(O)cc1)NC(=O)[C@H](C)NC(=O)[C@@H]1CSSC[C@@H]2NC(=O)[C@H](CCCCN)NC(=O)[C@H](CC(N)=O)NC(=O)[C@H](CC(N)=O)NC(=O)[C@H](CC(N)=O)NC(=O)[C@@H]3CCCN3C(=O)[C@H](CC(=O)O)NC(=O)[C@@H]3CSSC[C@H](NC(=O)[C@H](C(C)C)NC(=O)[C@H](Cc4ccc(O)cc4)NC(=O)CNC(=O)[C@H](CCC(=O)O)NC(=O)[C@H](CSSC[C@H](NC(=O)[C@H](CC(=O)O)NC(=O)CN)C(=O)N[C@@H](CC(C)C)C(=O)NCC(=O)N[C@@H](Cc4c[nH]c5ccccc45)C(=O)N[C@@H](Cc4ccccc4)C(=O)N[C@@H](CO)C(=O)NCC(=O)N3)NC2=O)C(=O)N[C@@H](Cc2c[nH]cn2)C(=O)N[C@@H](Cc2c[nH]c3ccccc23)C(=O)N[C@@H](CCCCN)C(=O)N[C@@H](Cc2ccc(O)cc2)C(=O)N2CCC[C@H]2C(=O)N[C@@H](Cc2c[nH]c3ccccc23)C(=O)N1)C(=O)O` [R30A] (H-GDCLGWFSGCDPNNNKCCEGYVCHWKYPWCAYDL-OH; disulfide 3-18, 10-23, 17-30 (inferred); N-terminus and C-terminus assumed), the pIC50 on hNaV1.3, on hNaV1.7 and on hNaV1.2 was below 6.00 throughout. For the same molecule, the “Loss (reduction) in potency vs rSsp1a at hNaV1.7” value on hNaV1.7 (relative to wild type rSsp1a) is listed as at least 10 fold. Further, the “Loss (reduction) in potency vs rSsp1a at hNaV1.2” value at hNaV1.2 (relative to wild type rSsp1a) was at least 10 fold.
For `CC(C)C[C@H](NC(=O)[C@H](CC(=O)O)NC(=O)[C@H](Cc1ccc(O)cc1)NC(=O)[C@H](CCCNC(=N)N)NC(=O)[C@@H]1CSSC[C@@H]2NC(=O)[C@H](CCCCN)NC(=O)[C@H](CC(=O)O)NC(=O)[C@H](CC(N)=O)NC(=O)[C@H](CC(N)=O)NC(=O)[C@@H]3CCCN3C(=O)[C@H](CC(=O)O)NC(=O)[C@@H]3CSSC[C@H](NC(=O)[C@H](C(C)C)NC(=O)[C@H](Cc4ccc(O)cc4)NC(=O)CNC(=O)[C@H](CCC(=O)O)NC(=O)[C@H](CSSC[C@H](NC(=O)[C@H](CC(=O)O)NC(=O)CN)C(=O)N[C@@H](CC(C)C)C(=O)NCC(=O)N[C@@H](Cc4c[nH]c5ccccc45)C(=O)N[C@@H](Cc4ccccc4)C(=O)N[C@@H](CO)C(=O)NCC(=O)N3)NC2=O)C(=O)N[C@@H](Cc2c[nH]cn2)C(=O)N[C@@H](Cc2c[nH]c3ccccc23)C(=O)N[C@@H](CCCCN)C(=O)N[C@@H](Cc2ccc(O)cc2)C(=O)N2CCC[C@H]2C(=O)N[C@@H](Cc2c[nH]c3ccccc23)C(=O)N1)C(=O)O` [N14D], the pIC50 at hNaV1.3 is 6.05; at hNaV1.7, below 5.52; on hNaV1.2 it was 6.90. Also, the “hNaV1.2-selectivity against hNaV1.3” value at hNaV1.2 came out at 7 fold. Also, at hNaV1.2 (ratio of potencies hNaV1.7 / hNaV1.2), the “hNaV1.2-selectivity against hNaV1.7” value was above 24 fold.
Consider `CC(C)C[C@H](NC(=O)[C@H](CC(=O)O)NC(=O)[C@H](Cc1ccc(O)cc1)NC(=O)[C@H](CCCNC(=N)N)NC(=O)[C@@H]1CSSC[C@@H]2NC(=O)[C@H](CCCCN)NC(=O)[C@H](CC(N)=O)NC(=O)[C@H](CC(N)=O)NC(=O)[C@H](CC(N)=O)NC(=O)[C@@H]3CCCN3C(=O)[C@H](CC(=O)O)NC(=O)[C@@H]3CSSC[C@H](NC(=O)[C@H](C(C)C)NC(=O)[C@H](Cc4ccc(O)cc4)NC(=O)CNC(=O)[C@H](CCCCN)NC(=O)[C@H](CSSC[C@H](NC(=O)[C@H](CC(=O)O)NC(=O)CN)C(=O)N[C@@H](CC(C)C)C(=O)NCC(=O)N[C@@H](Cc4c[nH]c5ccccc45)C(=O)N[C@@H](Cc4ccccc4)C(=O)N[C@@H](CO)C(=O)NCC(=O)N3)NC2=O)C(=O)N[C@@H](Cc2c[nH]cn2)C(=O)N[C@@H](Cc2c[nH]c3ccccc23)C(=O)N[C@@H](CCCCN)C(=O)N[C@@H](Cc2ccc(O)cc2)C(=O)N2CCC[C@H]2C(=O)N[C@@H](Cc2c[nH]c3ccccc23)C(=O)N1)C(=O)O` [E18K], for which the pIC50 on hNaV1.3 was 6.50; at hNaV1.7, 6.97; at hNaV1.2 it was 7.14.
On to `CC(C)C[C@H](NC(=O)[C@H](CC(=O)O)NC(=O)[C@H](Cc1ccc(O)cc1)NC(=O)[C@H](CCCNC(=N)N)NC(=O)[C@@H]1CSSC[C@@H]2NC(=O)[C@H](CCCCN)NC(=O)[C@H](CC(N)=O)NC(=O)[C@H](CC(N)=O)NC(=O)[C@H](CC(N)=O)NC(=O)[C@@H]3CCCN3C(=O)[C@H](CC(=O)O)NC(=O)[C@@H]3CSSC[C@H](NC(=O)[C@H](C(C)C)NC(=O)[C@H](Cc4ccc(O)cc4)NC(=O)CNC(=O)[C@H](CCC(=O)O)NC(=O)[C@H](CSSC[C@H](NC(=O)[C@H](CC(=O)O)NC(=O)CN)C(=O)N[C@@H](CC(C)C)C(=O)NCC(=O)N[C@@H](Cc4c[nH]c5ccccc45)C(=O)N[C@@H](Cc4ccccc4)C(=O)N[C@@H](CO)C(=O)NCC(=O)N3)NC2=O)C(=O)N[C@@H](Cc2c[nH]cn2)C(=O)N[C@@H](Cc2c[nH]c3ccccc23)C(=O)N[C@@H](CCCCN)C(=O)N[C@@H](Cc2ccc(O)cc2)C(=O)N[C@@H](CCCCN)C(=O)N[C@@H](Cc2c[nH]c3ccccc23)C(=O)N1)C(=O)O` [P27K], for which the values for the pIC50 at hNaV1.3, at hNaV1.7 and on hNaV1.2 were 5.82, 6.97 and 6.91, respectively. The “hNaV1.2-selectivity against hNaV1.3” value on hNaV1.2 is above 10 fold.
For `CC(C)C[C@H](NC(=O)[C@H](CC(=O)O)NC(=O)[C@H](Cc1ccc(O)cc1)NC(=O)[C@H](CCCNC(=N)N)NC(=O)[C@@H]1CSSC[C@@H]2NC(=O)[C@H](CCCCN)NC(=O)[C@H](CC(N)=O)NC(=O)[C@H](CC(N)=O)NC(=O)[C@H](CC(N)=O)NC(=O)[C@@H]3CCCN3C(=O)[C@H](CC(=O)O)NC(=O)[C@@H]3CSSC[C@H](NC(=O)[C@H](C(C)C)NC(=O)[C@H](Cc4ccc(O)cc4)NC(=O)CNC(=O)[C@H](Cc4ccccc4)NC(=O)[C@H](CSSC[C@H](NC(=O)[C@H](CC(=O)O)NC(=O)CN)C(=O)N[C@@H](CC(C)C)C(=O)NCC(=O)N[C@@H](Cc4c[nH]c5ccccc45)C(=O)N[C@@H](Cc4ccccc4)C(=O)N[C@@H](CO)C(=O)NCC(=O)N3)NC2=O)C(=O)N[C@@H](Cc2c[nH]cn2)C(=O)N[C@@H](Cc2c[nH]c3ccccc23)C(=O)N[C@@H](CCCCN)C(=O)N[C@@H](Cc2ccc(O)cc2)C(=O)N2CCC[C@H]2C(=O)N[C@@H](Cc2c[nH]c3ccccc23)C(=O)N1)C(=O)O` [E18F], the figures for the pIC50 on hNaV1.3, at hNaV1.7 and on hNaV1.2 were 6.40, 6.77 and 6.63, respectively.
Taken in the same sequence, the figures for `CC(C)C[C@H](NC(=O)[C@H](CCCCN)NC(=O)[C@H](Cc1ccc(O)cc1)NC(=O)[C@H](CCCNC(=N)N)NC(=O)[C@@H]1CSSC[C@@H]2NC(=O)[C@H](CCCCN)NC(=O)[C@H](CC(N)=O)NC(=O)[C@H](CC(N)=O)NC(=O)[C@H](CC(N)=O)NC(=O)[C@@H]3CCCN3C(=O)[C@H](CC(=O)O)NC(=O)[C@@H]3CSSC[C@H](NC(=O)[C@H](C(C)C)NC(=O)[C@H](Cc4ccc(O)cc4)NC(=O)CNC(=O)[C@H](CCC(=O)O)NC(=O)[C@H](CSSC[C@H](NC(=O)[C@H](CC(=O)O)NC(=O)CN)C(=O)N[C@@H](CC(C)C)C(=O)NCC(=O)N[C@@H](Cc4c[nH]c5ccccc45)C(=O)N[C@@H](Cc4ccccc4)C(=O)N[C@@H](CO)C(=O)NCC(=O)N3)NC2=O)C(=O)N[C@@H](Cc2c[nH]cn2)C(=O)N[C@@H](Cc2c[nH]c3ccccc23)C(=O)N[C@@H](CCCCN)C(=O)N[C@@H](Cc2ccc(O)cc2)C(=O)N2CCC[C@H]2C(=O)N[C@@H](Cc2c[nH]c3ccccc23)C(=O)N1)C(=O)O` [D32K] were 7.01, 7.07 and 7.12.
